The NIST ThermoML archive (doi:10.1021/je200683f)

Settings: Liquid, Transpiration method

NC=O [formamide]
Settings | vapor or sublimation pressure [kPa]
303.4 K | 0.0143
308.2 K | 0.0201
313.2 K | 0.0305
318.2 K | 0.0455
323.2 K | 0.0636
328.2 K | 0.0915
333.2 K | 0.1243
338.2 K | 0.1674
343.2 K | 0.2297
348.2 K | 0.3121
353.3 K | 0.4543
358.2 K | 0.5468
363.2 K | 0.7803
368.1 K | 0.9855
373.2 K | 1.271
376 K | 1.476
